Source: patent US20210121440A1, “ACNE TREATMENT” (priority 2003, published 2021)

How the values were obtained:
[1] = tested on: patients having acne papulopustolosa; assay: Clinical judgement of number of lesions and degree of severity index (Allen and Smith) in acne patients treated orally; assay type: in vivo, human
Description: (§1) For treating the inflammatory acne 10 patients having acne papulopustolosa (m:f 6:4, age 19±5 years) were treated orally with a selective 5-lipoxygenase inhibitor, namely with (±)-1-1.benzo[b]thien—2-ylethyl)-1-hydroxyurea (Zileuton) 4×600 mg/d p.o. for a period of three months. The number of lesions and the general degree of severity index according to Allen and […] (Allen B S, Smith J G: Various parameters for grading acne. Arch Dermatol. 1982; 118: 23-25) were clinically judged. Moreover, the surface lipids using Sebumeter® and the liver enzymes in the serum were determined at the beginning of the study, in the 2nd, 4th, 8th and 12th weeks of treatment and 2 weeks after completion of the therapy. The LTB4 detection in the blood by radio-immuno-assay and the lipid fractions in the serum by chromatography were examined at the beginning and in the 12th week of treatment. The patients were photographed at the beginning and at the end of the treatment. The degree of severity index of acne decreased continuously and dependent on the time (41±28% of the initial value in the 12th week of treatment; p<0.05). […] The degree of clinical improvement strongly correlated with the reduction of the total lipids in the sebum (p=0.0009, r^2=0.81) and the free fatty acid (p=0.0003, r^2=0.82). […] To sum up, thus first indirect proofs could be furnished for a genuine inflammatory etiology of acne.

[2] = tested on: LTB4 in the blood; assay: LTB4 detection in the blood by radio-immuno-assay; assay type: in vivo, human; conditions: beginning vs 12th week of treatment; 4×600 mg/d p.o.
Description: as §1

[3] = tested on: surface lipids; assay: Surface lipids using Sebumeter; assay type: in vivo, human; conditions: 4×600 mg/d p.o. for three months
Description: as §1

[4] = tested on: patients having acne papulopustolosa; assay: Side-effects in treated acne patients; assay type: in vivo, human; conditions: 4×600 mg/d p.o. for three months; 10 patients
Description: as §1, with “of acne. […]” for “of acne.”

[5] = tested on: total lipids and pro-inflammatory lipid fractions in the sebum; assay: Lipids and lipid fractions in the sebum by chromatography; assay type: in vivo, human; conditions: 12th week of treatment, 4×600 mg/d p.o.
Description: as §1

[6] = tested on: patients; conditions: oral administration; especially older patients having an impaired renal function; cited from earlier work

| SMILES | response of comedones ([1]; 4×600 mg/d p.o. for three months) | decrease of the number of inflammatory lesions up to ([1]; 4×600 mg/d p.o. for three months, p<0.01) [%] | degree of severity index of acne, % of the initial value ([1]; 12th week of treatment, 4×600 mg/d p.o., 10 patients, p<0.05) [%] | all examined parameters during follow-up ([1]; two-weeks' follow-up phase after completion of the therapy) | LTB4 in the blood [2] | surface lipids [3] | subjective and objective side-effects [4] | decrease of lipoperoxides in the sebum [5] [%] | decrease of pro-inflammatory free fatty acids in the sebum [5] [%] | decrease of total lipids in the sebum ([5]; p<0.05) [%] | disadvantageous effects observed in clinical tests [6] |
| --- | --- | --- | --- | --- | --- | --- | --- | --- | --- | --- | --- |
| CC(c1cc2ccccc2s1)N(O)C(N)=O (racemic) [Zileuton, (±)-1-(1-benzo[b]thien-2-ylethyl)-1-hydroxy-urea] | comedones did not respond | 29±24 | 41±28 | remained practically unchanged | not influenced | not influenced | Neither subjective nor objective side-effects were noticed | 26±30 | 22±18 | 35±51 |  |
| CC(C(=O)O)c1ccc2oc(-c3ccc(Cl)cc3)nc2c1 (centres unmarked) [benoxaprofen] |  |  |  |  |  |  |  |  |  |  | a photosensitivity, exzema, milii, onycholysis and a hepatotoxicity with jaundice |
